# Reference: patent US20260041744A1, “Methods for Treating Pompe Disease” (Amicus Therapeutics, Inc., priority 2022, published 2026)
# Legend:
# [1] = test system: adult subjects with Pompe disease; experiment: Pooled Studies ATB200-02/03/07 (Pool 2): sitting % predicted FVC by exposure interval
# Description: (§1) The pooled efficacy analyses presented within this section include the outlier (Pool 2). […] Pooled efficacy analyses excluding the outlier subject (Pool 2A) were also performed.
# (§2) No long-term data for the alglucosidase alfa/placebo group are available, as all subjects switched to cipaglucosidase alfa/miglustat in Study ATB200-07.
# (§3) Efficacy data from the 3 adult Pompe disease clinical studies were pooled and analyzed to further support the long-term efficacy of cipaglucosidase alfa/miglustat in adult subjects. Data from non-ambulatory subjects (Study ATB200-02 Cohort 2) were not included in the pool as there was little overlap of efficacy endpoints for this group with the various ambulatory groups, such as 6MWD and lower MMT.
# (§4) The 3 adult Pompe disease clinical studies were pooled as follows: • The cipaglucosidase alfa/miglustat treatment group consists of: • All ambulatory subjects in Study ATB200-02 (Cohorts 1, 3, and 4), • All subjects randomized to the cipaglucosidase alfa/miglustat treatment group in Study ATB200-03, and • All subjects enrolled in Study ATB200-07. • The alglucosidase alfa/placebo treatment group consists of: • All subjects randomized to the ERT treatment group in Study ATB200-03.
# [2] = test system: adult subjects with LOPD; experiment: Study ATB200-07 (OLE): PROMIS-Fatigue; type: in vivo, human
# From the text: (§5) Analysis populations presented in this summary are 1) the OLE-ES Population (all subjects who satisfied the eligibility requirements (based on the inclusion and exclusion criteria) and entered Study ATB200-07 and 2) the OLE-FAS Population (all subjects who entered the OLE Study ATB200-07 who had both a valid ATB200-07 baseline and at least 1 post-baseline assessment for at least 1 of the 6 main efficacy endpoints [6MWD, sitting % predicted FVC, MMT-lower extremities, PROMIS-Physical Function, PROMIS-Fatigue, and GSGC]).
# [3] = test system: adult subjects with Pompe disease; experiment: Pooled Studies ATB200-02/03/07 (Pool 2): 6MWD by exposure interval
# Description: as §1, §2, §3, §4
# [4] = test system: adult subjects with LOPD; experiment: Study ATB200-07 (OLE): MMT lower extremity
# From the text: as §5
# [5] = test system: adult subjects with LOPD; experiment: Study ATB200-07 (OLE of PROPEL): 6MWD and % predicted 6MWD; type: in vivo, human
# From the text: The study doses and schedule are maintained from Study ATB200-03.
# Efficacy data are presented in this summary as change from the baseline of Study ATB200-03 (OLE-ES Population).
# [6] = exposure interval >15 to ≤24 months, Pool 2, including the outlier
# [7] = exposure interval >24 months, Pool 2, including the outlier
# [8] = exposure interval ≤15 months, Pool 2, Efficacy Population including the outlier
# [9] = exposure interval ≤15 months, Pool 2, including the outlier
# [10] = exposure interval ≤15 months, last available post-baseline value − baseline, Pool 2, including the outlier
# [11] = Study ATB200-03 baseline, OLE-ES Population excluding Subject 4005-2511
# [12] = change from ATB200-03 baseline at Week 104, alglucosidase alfa/placebo group switched to cipaglucosidase alfa/miglustat at Week 52, OLE-ES excluding Subject 4005-2511
substance,measurement,setting,value
"ATB200/miglustat: two-component therapy: cipaglucosidase alfa (ATB200) administered in conjunction with miglustat (AT2221), a stabilizer of cipaglucosidase alfa",mean (SD) change from baseline in % predicted FVC,[1]; exposure >15 to ≤24 months (n=97),-0.88 (7.103)
same,mean (SD) change from baseline in % predicted FVC,[1]; exposure >24 months (n=68),−2.55 (8.393)
same,"Sitting % Predicted FVC Baseline, Mean",[1]; [6],66.89 % predicted
same,"Sitting % Predicted FVC Baseline, Median",[1]; [6],67.50 % predicted
same,"sitting % predicted FVC change from baseline, mean",[1]; [6],−0.88 % predicted
same,"sitting % predicted FVC change from baseline, median",[1]; [6],−1.00 % predicted
same,"Sitting % Predicted FVC Baseline, Mean",[1]; [7],67.15 % predicted
same,"Sitting % Predicted FVC Baseline, Median",[1]; [7],69.00 % predicted
same,"sitting % predicted FVC change from baseline, mean",[1]; [7],−2.55 % predicted
same,"sitting % predicted FVC change from baseline, median",[1]; [7],−2.25 % predicted
same,"Sitting % Predicted FVC Baseline, Mean",[1]; [8],67.51 % predicted
same,"Sitting % Predicted FVC Baseline, Median",[1]; [9],68.00 % predicted
same,"sitting % predicted FVC change from baseline, median",[1]; [9],−1.00 % predicted
same,"sitting % predicted FVC change from baseline, mean",[1]; [10],−0.74 % predicted
same,mean (SD) change from baseline in % predicted FVC,[1]; exposure ≤15 months (n=139),-0.74 (6.121)
same,"PROMIS-Fatigue, mean BSL",[2]; [11],22.1
same,"PROMIS-Fatigue, mean 52-wk CFB","[2]; change from ATB200-03 baseline at Week 52, decrease indicates improvement, OLE-ES excluding Subject 4005-2511",−2.3
same,"PROMIS-Fatigue, mean 104-wk CFB",[2]; [12],−1.6
same,mean (SD) improvement in % predicted 6MWD,[3]; after at least 24 months (n=70),3.3 (10.84)
same,mean (SD) improvement in 6MWD,[3]; exposure >15 to ≤24 months (n=108),17.7 (55.61) meters
same,mean (SD) improvement in 6MWD,[3]; exposure >24 months (n=70),9.7 (67.13) meters
same,"6MWD Baseline, Mean",[3]; [6],366.33 meters
same,"6MWD Baseline, Median",[3]; [6],369.25 meters
same,"6MWD change from baseline, mean",[3]; [6],17.67 meters
same,"6MWD change from baseline, median",[3]; [6],11.75 meters
same,"6MWD Baseline, Mean",[3]; [7],367.77 meters
same,"6MWD Baseline, Median",[3]; [7],376.43 meters
same,"6MWD change from baseline, mean",[3]; [7],9.67 meters
same,"6MWD change from baseline, median",[3]; [7],5.23 meters
same,"6MWD Baseline, Mean",[3]; [8],367.10 meters
same,"6MWD Baseline, Median",[3]; [9],373.75 meters
same,"6MWD change from baseline, median",[3]; [9],12.00 meters
same,"6MWD change from baseline, mean",[3]; [10],17.13 meters
same,mean (SD) improvement in 6MWD,[3]; exposure ≤15 months (n=143),17.1 (44.92) meters
same,"MMT (lower extremity score), mean BSL",[4]; [11],27.9
same,"MMT (lower extremity score), mean 52-wk CFB","[4]; change from ATB200-03 baseline at Week 52, OLE-ES excluding Subject 4005-2511",1.6
same,"MMT (lower extremity score), mean 104-wk CFB",[4]; [12],1.8
same,"other main endpoints (MMT lower extremity, PROMIS-Physical Function, PROMIS-Fatigue, GSGC) course to Week 104",[4]; treated through Studies ATB200-03 and ATB200-07,"either improved or remained stable through Study ATB200-03, and then stabilized through Study ATB200-07"
same,6MWD course to Week 104,"[5]; OLE-ES Population, continued cipaglucosidase alfa/miglustat","showed an improvement through Study ATB200-03, which was then maintained through Week 104"
same,"6MWD, mean BSL",[5]; [11],354.9 m
same,"6MWD, mean 52-wk CFB","[5]; change from ATB200-03 baseline at Week 52 (= ATB200-07 baseline), OLE-ES excluding Subject 4005-2511",20.6 m
